Measurements published in BindingDB's records for doi:10.1074/jbc.M501100200 (University of Texas Southwestern Medical Center, 2005).

Experiments:
Assay in all cases: DHODH Inhibition Assay
[1] = biological target: T1, Dihydroorotate dehydrogenase (quinone), mitochondrial (Plasmodium falciparum, UniProt Q54A96); conditions: pH 8; 22 °C
T1 sequence (Q54A96 whole entry): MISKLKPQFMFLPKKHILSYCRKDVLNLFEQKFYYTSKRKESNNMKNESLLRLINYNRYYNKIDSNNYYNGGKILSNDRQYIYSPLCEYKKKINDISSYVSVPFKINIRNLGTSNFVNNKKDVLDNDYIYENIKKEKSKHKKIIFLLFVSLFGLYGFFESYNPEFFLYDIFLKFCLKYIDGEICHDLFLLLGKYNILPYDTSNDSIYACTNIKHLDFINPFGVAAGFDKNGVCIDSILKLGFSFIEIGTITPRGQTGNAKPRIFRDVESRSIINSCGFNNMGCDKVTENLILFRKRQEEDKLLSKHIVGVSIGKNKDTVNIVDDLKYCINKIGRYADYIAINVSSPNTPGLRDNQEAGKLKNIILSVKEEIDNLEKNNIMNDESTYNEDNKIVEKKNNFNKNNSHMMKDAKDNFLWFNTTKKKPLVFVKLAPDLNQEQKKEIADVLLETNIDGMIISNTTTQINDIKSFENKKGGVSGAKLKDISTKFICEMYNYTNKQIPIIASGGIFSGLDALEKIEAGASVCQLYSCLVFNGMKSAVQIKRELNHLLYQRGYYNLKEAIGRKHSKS
Procedure: (§1) The assays were carried out by using a colorimetric DCIP method, which uses the colorimetric reagent 2, 6-dichlorophenolindophenol as the final electron acceptor. DCIP reduction is stoichiometrically equivalent to oxidation of dihydroorotate. Changes in absorbance were quantified on a plate reader and data were analyzed to measure the reduction of DCIP as a decrease in absorbance at 600 nm. For the determination of the IC50 values (concentration of inhibitor required for 50% inhibition) different inhibitor concentrations were applied.

[2] = biological target: Dihydroorotate dehydrogenase (quinone), mitochondrial [R265A] (Plasmodium falciparum, UniProt Q54A96, R265A)
Dihydroorotate dehydrogenase (quinone), mitochondrial [R265A], sequence (Q54A96 whole entry R265A): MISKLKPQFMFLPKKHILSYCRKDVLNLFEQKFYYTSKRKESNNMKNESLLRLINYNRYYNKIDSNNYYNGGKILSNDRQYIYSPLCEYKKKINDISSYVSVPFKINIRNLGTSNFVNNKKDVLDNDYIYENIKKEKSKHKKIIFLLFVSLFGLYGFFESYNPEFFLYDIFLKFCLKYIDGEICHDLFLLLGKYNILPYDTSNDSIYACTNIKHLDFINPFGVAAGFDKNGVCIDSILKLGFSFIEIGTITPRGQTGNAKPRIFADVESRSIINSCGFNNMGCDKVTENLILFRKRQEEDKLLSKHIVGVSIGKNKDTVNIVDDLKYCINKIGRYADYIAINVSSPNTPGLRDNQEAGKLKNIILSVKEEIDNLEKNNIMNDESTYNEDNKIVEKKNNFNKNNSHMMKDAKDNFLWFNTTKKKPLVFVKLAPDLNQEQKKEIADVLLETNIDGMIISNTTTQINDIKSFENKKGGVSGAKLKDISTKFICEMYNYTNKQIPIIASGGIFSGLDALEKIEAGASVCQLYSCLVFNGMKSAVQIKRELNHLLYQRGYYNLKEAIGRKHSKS
Procedure: as §1

[3] = biological target: Dihydroorotate dehydrogenase (quinone), mitochondrial [H185A] (Plasmodium falciparum, UniProt Q54A96, H185A)
Dihydroorotate dehydrogenase (quinone), mitochondrial [H185A], sequence (Q54A96 whole entry H185A): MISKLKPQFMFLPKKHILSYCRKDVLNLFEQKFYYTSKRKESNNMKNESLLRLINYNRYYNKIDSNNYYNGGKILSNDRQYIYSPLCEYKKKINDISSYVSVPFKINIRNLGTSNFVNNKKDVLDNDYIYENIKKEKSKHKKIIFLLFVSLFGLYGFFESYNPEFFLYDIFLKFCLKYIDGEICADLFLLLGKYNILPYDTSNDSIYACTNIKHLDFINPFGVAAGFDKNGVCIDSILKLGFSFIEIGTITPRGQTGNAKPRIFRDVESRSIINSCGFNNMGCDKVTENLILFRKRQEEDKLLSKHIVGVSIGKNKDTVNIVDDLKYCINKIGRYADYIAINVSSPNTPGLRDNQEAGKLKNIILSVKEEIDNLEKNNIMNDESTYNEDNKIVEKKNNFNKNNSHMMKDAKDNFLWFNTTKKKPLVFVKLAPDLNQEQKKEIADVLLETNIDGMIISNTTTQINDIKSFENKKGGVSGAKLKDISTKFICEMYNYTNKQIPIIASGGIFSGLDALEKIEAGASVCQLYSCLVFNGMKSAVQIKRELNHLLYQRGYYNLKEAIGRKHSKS
Procedure: as §1

[4] = biological target: T2, Dihydroorotate dehydrogenase (quinone), mitochondrial [30-395] (Homo sapiens, UniProt Q02127)
T2 construct: 30-395
T2 sequence (Q02127 30-395): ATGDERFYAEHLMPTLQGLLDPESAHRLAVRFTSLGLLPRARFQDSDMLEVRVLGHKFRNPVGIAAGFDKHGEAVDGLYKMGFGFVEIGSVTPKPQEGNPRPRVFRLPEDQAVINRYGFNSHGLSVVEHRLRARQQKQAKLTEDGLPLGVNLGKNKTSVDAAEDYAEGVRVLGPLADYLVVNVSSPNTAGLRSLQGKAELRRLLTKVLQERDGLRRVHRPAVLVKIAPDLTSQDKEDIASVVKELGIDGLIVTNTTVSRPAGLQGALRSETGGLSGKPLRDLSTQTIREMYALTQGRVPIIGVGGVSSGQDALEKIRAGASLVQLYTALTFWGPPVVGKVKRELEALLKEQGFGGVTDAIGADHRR
Procedure: as §1

Compound | IC50 [1] [µM] | IC50 [2] [µM] | IC50 [3] [µM] | IC50 [4] [µM]
O=C(Nc1ccccc1C(F)(F)F)Nc1cccc2ccccc12 [1-naphthalen-1-yl-3-[2-(trifluoromethyl)phenyl]urea] | 0.4 | 0.34 | > 200 | > 1000
Cc1c(C(=O)Nc2cccc(C(F)(F)F)c2)cccc1[N+](=O)[O-] [2-methyl-3-nitro-N-[3-(trifluoromethyl)phenyl]benzamide] | 0.08 | 0.37 | 120 | 150
Cc1c(C(=O)Nc2cccc3ccccc23)cccc1[N+](=O)[O-] [2-methyl-N-(naphthalen-1-yl)-3-nitrobenzamide] | 0.08 | 0.48 | 180 | 100
COc1ccccc1NC(=O)Nc1cccc2ccccc12 [3-(2-methoxyphenyl)-1-naphthalen-1-ylurea] | 0.23 | 0.24 | 140 | 112
O=C(Nc1ccc(Cl)cc1)Nc1cccc2cccnc12 [3-(4-chlorophenyl)-1-quinolin-8-ylurea] | 0.78 | 2 | > 400 | 116
Cc1c(C(=O)Nc2cc(Cl)cc(Cl)c2)cccc1[N+](=O)[O-] [Asinex compound no. 6] | 0.016 | 0.4 | 130 | 200
Cc1cc(Br)ccc1NC(=O)c1ccc2ccccc2c1 [ChemBridge compound no. 2] | 0.05 | 0.05 | 570 | 210
O=C(Nc1ccc(Cl)cc1Cl)c1ccc2ccccc2c1 [N-(2,4-dichlorophenyl)naphthalene-2-carboxamide] | 0.05 | 0.08 | > 50 | > 50
O=C(Nc1ccccc1F)c1ccc2ccccc2c1 [N-(2-fluorophenyl)naphthalene-2-carboxamide] | 0.47 | 0.3 | 210 | 34
Cc1c(C(=O)Nc2ccc(Cl)c(Cl)c2)cccc1[N+](=O)[O-] [N-(3,4-dichlorophenyl)-2-methyl-3-nitrobenzamide] | 0.08 | 2.8 | 60 | 72
Cc1c(C(=O)Nc2ccc(F)c(F)c2)cccc1[N+](=O)[O-] [N-(3,4-difluorophenyl)-2-methyl-3-nitrobenzamide] | 0.26 | 0.82 | 250 | 200
Cc1c(C(=O)Nc2cccc(Br)c2)cccc1[N+](=O)[O-] [N-(3-bromophenyl)-2-methyl-3-nitrobenzamide] | 0.06 | 1.2 | 140 | 105
Cc1c(C(=O)Nc2ccc(F)c(Cl)c2)cccc1[N+](=O)[O-] [N-(3-chloro-4-fluorophenyl)-2-methyl-3-nitrobenzamide] | 0.1 | 0.5 | 130 | 116
